Reference: patent US20110009597A1, “RECOMBINANT GANODERMA LUCIDIUM IMMUNOMODULATORY PROTEIN (rLZ-8) AND USES THEREOF” (priority 2008, published 2011)

Key:
S180 cells = assay: Mouse transplanted S180 subcutaneous tumor inhibition; format: in vivo, Mice; details: CTX 20 mg·kg^−1 intraperitoneal
Procedure: (§1) Mice, 18-22 g, males and females were equally divided, provided by Jilin University Laboratory Animal Center; Mice Ehrlich ascites cells strain, provided by our laboratory S180; Cyclophosphamide (CTX), offered by Jiangsu Hengrui Medicine Co., Ltd., lot number: 06101921. S180 ascites tumors and solid tumors in experiment group were divided into normal control group, negative control group, positive control group, rLZ-8 low-dose treatment group (0.25 mg·kg^−1), rLZ-8 medium-dose treatment group (0.5 mg·kg^−1), rLZ-8 high-dose treatment group (1 mg·kg^−1). For each group 10 mice.
(§2) Select well-growing S180 cells, dilute appropriately with sterile saline into a tumor cell suspension, cell counts for 10^7·L^−1, under the right armpit of each mouse inoculated subcutaneously 0.2 ml (except for the normal control group). Treatment after 24 h of vaccination. Normal control group and negative control group were given saline 0.2 ml·each^−l·d^−1, intraperitoneal injection; positive control group were given cyclophosphamide 20 mg·kg^−1, intraperitoneal injection. rLZ-8 treatment groups were given doses of tail venous injection respectively, 0.2 ml·each^−1·d^−1, in 10 consecutive days. Draw blood from orbital venous plexus 10 days before and after medication respectively, sent to Jilin University No. 1 Hospital clinical laboratory to test and analyze the number of WBC. Kill all mice the next day of drug withdrawal at cervical dislocation, dissect anatomically and take out the tumors, weigh tumors, calculate the inhibition rate using the following equation:
Inhibition rate (%)=(average tumore weight of the control group−average tumore weight of the experiment group)/average tumor weight of the control group×100%

WBC [1] = assay: Number of leukocytes in S180 tumor-bearing mice; details: CTX 20 mg·kg^−1
Procedure: as §1
as §2, with “Kill all mice the next day of drug withdrawal at cervical dislocation, dissect anatomically and take out the tumors, weigh tumors, calculate the inhibition rate using the following equation:” left out

[2] = tested on: Mouse hepatoma cell strain H22; assay: H22 subcutaneous tumor inhibition experiment; format: in vivo, Mice; details: CTX 20 mg·kg^−1 intraperitoneal
Procedure: (§3) Mice, weight 18-22g, males and females were divided equally, from Jilin University Laboratory Animal Center. Mouse hepatoma cell strain H22, offered by our laboratory. Cyclophosphamide (CTX), offered by Jiangsu Hengrui Medicine Co., Ltd., lot number: 06101921.
(§4) H22 hepatoma cells experiment group were divided into normal control group, negative control group, positive control group, rLZ-8 low-dose treatment group (0.25 mg·kg^−1), rLZ-8 medium-dose treatment group (0.5 mg·kg^−1), rLZ-8 high-dose treatment group (1 mg·kg^−1). For each group 10 mice.
H22 subcutaneous tumor tumor inhibition experiment methods: Select well-growing 1-122 cells, dilute appropriately with sterile saline into a tumor cell suspension, cell counts for 10^7·L^−1, under the right armpit of each mouse inoculated subcutaneously 0.2 ml (except for the normal control group). Treatment after 24 h of vaccination. Normal control group and negative control group were given saline 0.2 ml·each^−1·d^−1, intraperitoneal injection; positive control group were given cyclophosphamide 20 mg·kg^−1, 0.2 ml·each^−1·d^−1, intraperitoneal injection. rLZ-8 treatment groups were given doses of tail venous injection respectively, 0.2 ml·each^−1·d^−1, in 10 consecutive days. Draw blood from orbital venous plexus 10 days before and after medication respectively, sent to Jilin University No. 1 Hospital clinical laboratory to test and analyze the number of WBC. Kill all the mice the next day of drug withdrawal at cervical dislocation, dissected anatomically and took out the tumors, weigh tumors, calculated the inhibition rate using the following equation:
Inhibition rate (%)=(average tumore weight of the control group−average tumor weight of the experiment group)/average tumor weight of the control group×100%

WBC [3] = assay: WBC numbers in H22 tumor-bearing mice; details: CTX 20 mg·kg^−1
Procedure: as §3, §4
H22 subcutaneous tumor tumor inhibition experiment methods: Select well-growing 1-122 cells, dilute appropriately with sterile saline into a tumor cell suspension, cell counts for 10^7·L^−1, under the right armpit of each mouse inoculated subcutaneously 0.2 ml (except for the normal control group). Treatment after 24 h of vaccination. […] Kill all the mice the next day of drug withdrawal at cervical dislocation, dissected anatomically and took out the tumors, weigh tumors, calculated the inhibition rate using the following equation: […]

rat myocardial tissues = assay: FITC-rLZ-8 labeling of rat myocardial tissues; format: binding; details: FITC-rLZ-8 100 ng·ml^−1, 1 h, 37° C.
Procedure: Leica CM1850 frozen slicer; wistar rat; fluorescence microscope 80i (Nikon); isotonic PBS buffer (pH7.2); fetal bovine serum (FBS, Gibco); FITC-rLZ-8 is prepared by our laboratory. Cut the rats at neck and kill them, and strip the hearts, put them to frozen microtome till the temperature dropped to −20° C. for slicing, hatching for 1 h at 37° C. when the myocaridial and PBS preparation of FITC-rLZ-8 solution (100 ng·ml^−1), observing under fluorescence microscope to observe, and establish a blank control group.

rabbit chondrocytes = assay: FITC-rLZ-8 labeling of primary rabbit chondrocytes; format: binding; details: FITC-rLZ-8 0.25 μg·ml^−1, 1 h, 37° C.
Procedure: Japanese white rabbits (male, 2.5 kg) 4; surgical instruments; 025% trypsogen+0.02% EDTA; 0.2% collagenasell; D-Hanks; IMDM medium ([…], vitamin C, double-antibody); 0.025 mg·ml^−1 Poly-lysine solution; sterile water for injection (WFI).
Fix the experiment animals and execute them with air embolism, skinned abdominal in the middle and exposed the limbs, cutting the muscle fascia with scissors, disconnected the backbone from os longum, remove carefully the entire knee, hip and shoulder bones, with a rough pruning, immersed into D-Hanks. Moved the beaker with tissues into the super-clean units, move the tissues after pruning and cleansing into the 2nd sterile D-Hanks cup; assemble the knife, cutting a thin layer of cartilage off, use curved forceps move into the 6 cm culture incubator, washing with D-Hanks three times, discard majority of D-Hanks, cut the cartilage into 1 mm slices with ophthalmic scissors, discard majority of D-Hanks, spoon removing the broken bone vials into a 10 cm^2 culture flask, mix with trypsogen EDTA for digestion, 37° C., 30 min; replace the trypsogen for collagenase, put it into the hatching incubator of 37° C., taking out and shaking 5 min every 1 h, with 4-4.5 h, finish digestion. Prepare it to the cell suspension solution and mix 3 ml IMDM containing FBS 15%, 5×10^4·ml^−1 vaccinated into the culture flask. […]

HL-60 cells = assay: FITC-rLZ-8 labeling of HL-60 cells; format: binding
Procedure: Fluorescence microscope 80i (Nikon), IMDM cell culture medium (Hyclone), fetal bovine serum (FBS, Gibco), FITC-rLZ-8 and isotonic PBS buffer (pH7.2) Prepared by our laboratory.
Vaccinated the HL-60 by 2×106 inoculation on 24-hole plate, each hole 0.5 ml, with IMDM (2% FBS) culture medium prepared FITC-rLZ-8 for 100 ng·ml^−1, each hole 0.5 ml hatching (37° C.), establish a control group, experiment group 1 h and experiment group 6 h, draw the cells respectively from 1 h and 6 h, mixing into 1.5 ml EP tube, 1000 r·min^−1 centrifuge, clear the supernatant, wash with PBS 3 times, re-suspend after washing.

O=P1(N(CCCl)CCCl)NCCCO1 (stereo not shown) [CTX, Cyclophosphamide, reference compound]
Inhibition rate (%) (S180 cells): 65.3%
Tumor weight (S180 cells): 0.35 ± 0.02 g
Number of leukocytes, 10th day of medication (WBC [1]): 4.41 ± 0.25
Inhibition rate (%) [2]: 62.5%
Tumor weight [2]: 0.45 ± 0.02 g
WBC numbers, 10th day of medication (WBC [3]): 4.49 ± 0.21

B1: FITC-rLZ-8: rLZ-8 labelled with Fluorescein-5-Isothiocyanate (FITC) (conjugate, UniProt P14945 2-111, looked up)
Immunomodulatory protein Ling …: SDTALIFRLAWDVKKLSFDYTPNWGRGNPNNFIDTVTFPKVLTDKAYTYRVAVSGRNLGVKPSYAVESDGSQKVNFLEYNSGYGIADTNTIQVFVVDPDTNNDFIIAQWN
modifications: FITC label
fluorescence of myocardial tissues (rat myocardial tissues): without visible fluorescence
fluorescence of rabbit chondrocytes (rabbit chondrocytes): without green fluorescence
cell appearance of HL-60 (HL-60 cells; FITC-rLZ-8 100 ng·ml^−1, group 6 h): agglutination of cells
fluorescence of HL-60 cells (HL-60 cells; FITC-rLZ-8 100 ng·ml^−1, incubation of 1 h and 6 h): strong green fluorescence
